Measured values taken from paper PMC8291587, “Guanidine Derivatives: How Simple Structural Modification of Histamine H3R Antagonists Has Led to the Discovery of Potent Muscarinic M2R/M4R Antagonists” (ACS Chemical Neuroscience, 2021).
pKi: −log10 of the molar value. Read-outs that look alike come from different tables or passages of the source.

What was measured:
hM1R = target: T1, hM1R (Homo sapiens, UniProt P11229); assay: hM1R radioligand binding ([3H]NMS, CHO cell membranes); settings: for Ki: read-out: hM1R -log(Ki) ± sem (converted)
T1 construct: host or cells: CHO cells, stably transfected; crude membranes
T1 sequence (P11229 1-460): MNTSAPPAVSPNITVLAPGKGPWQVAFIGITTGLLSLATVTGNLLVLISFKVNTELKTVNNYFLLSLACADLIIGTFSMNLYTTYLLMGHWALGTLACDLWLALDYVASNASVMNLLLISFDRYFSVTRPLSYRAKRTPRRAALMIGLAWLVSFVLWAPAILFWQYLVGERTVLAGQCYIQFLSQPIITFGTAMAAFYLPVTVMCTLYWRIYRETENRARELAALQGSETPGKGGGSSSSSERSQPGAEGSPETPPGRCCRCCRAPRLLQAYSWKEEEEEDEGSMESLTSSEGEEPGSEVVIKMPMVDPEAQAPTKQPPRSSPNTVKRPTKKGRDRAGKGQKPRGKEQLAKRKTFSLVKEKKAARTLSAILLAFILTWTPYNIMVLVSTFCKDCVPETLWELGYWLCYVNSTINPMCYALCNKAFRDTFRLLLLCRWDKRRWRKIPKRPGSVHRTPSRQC
Protocol: (§1) To clearly explain the obtained outcome, we engaged the radioligand binding experiment. The hM1–hM5 radioligand binding experiments were performed in the membrane fractions of Chinese hamster ovary cells (CHO) stably expressing human variants of muscarinic receptors. N-[^3H]Methylscopolamine was used as the radiolabeled ligand.[39] Three compounds were selected from ex vivo screening on guinea pig ileum. […] This compound is also not completely selective for the remaining muscarinic receptor subtypes with −log Ki values over 6. […] It is also a potent muscarinic M1R antagonist, and the M1R/M2R selectivity ratio is <10. It is worth noting that such nonspecific anticholinergics are often associated with neuropsychiatric and cognitive disturbances and that nonselective muscarinic M1R/M2R antagonists, such as scopolamine, can produce cognitive deficits. Further structural modifications of ADS10227 should be used to increase selectivity toward the M2R, as these may present fewer potential side effects associated with the activation of the phospholipase C signaling pathway.
(§2) The culture was derived from CHO cells stably transfected with the genes of human variants of muscarinic receptors. These were purchased from Missouri S&T cDNA Resource Center (Rolla, MO, USA). Cell cultures and crude membranes were prepared as described previously.[45] The cells were grown to confluence in 75 cm^2 flasks in Dulbecco’s modified Eagle’s medium (DMEM) supplemented with 10% fetal bovine serum, and 2 million cells were subcultured to 100 mm Petri dishes. The medium was supplemented with 5 mM butyrate for the last 24 h of cultivation to increase receptor expression. Cells were detached by mild trypsinization on day 5 after subculture. Detached cells were washed twice in 50 mL of phosphate-buffered saline and 3 min centrifugation at 250g. […]
(§3) All radioligand binding experiments were optimized and carried out according to general guidelines.[39] […] N-Methylscopolamine binding was measured directly in saturation experiments using six concentrations (30–1000 pM) of [^3H]NMS during incubation for 1 h (M2R), 3 h (M1R, M3R, and M4R), or 5 h (M5R). For calculations of the equilibrium dissociation constant (KD), concentrations of free [^3H]NMS were calculated by subtraction of bound radioactivity from total radioactivity in the sample and fitting eq 1 (Experimental Data analysis section). The binding of the tested ligands was determined in competition experiments with 100 pM [^3H]NMS. […] Nonspecific binding was determined in the presence of 1 μM unlabeled atropine. […]

hM2R = target: T2, hM2R (Homo sapiens, UniProt P08172); assay: hM2R radioligand binding ([3H]NMS, CHO cell membranes)
T2 construct: host or cells: CHO cells, stably transfected; crude membranes
T2 sequence (P08172 1-466): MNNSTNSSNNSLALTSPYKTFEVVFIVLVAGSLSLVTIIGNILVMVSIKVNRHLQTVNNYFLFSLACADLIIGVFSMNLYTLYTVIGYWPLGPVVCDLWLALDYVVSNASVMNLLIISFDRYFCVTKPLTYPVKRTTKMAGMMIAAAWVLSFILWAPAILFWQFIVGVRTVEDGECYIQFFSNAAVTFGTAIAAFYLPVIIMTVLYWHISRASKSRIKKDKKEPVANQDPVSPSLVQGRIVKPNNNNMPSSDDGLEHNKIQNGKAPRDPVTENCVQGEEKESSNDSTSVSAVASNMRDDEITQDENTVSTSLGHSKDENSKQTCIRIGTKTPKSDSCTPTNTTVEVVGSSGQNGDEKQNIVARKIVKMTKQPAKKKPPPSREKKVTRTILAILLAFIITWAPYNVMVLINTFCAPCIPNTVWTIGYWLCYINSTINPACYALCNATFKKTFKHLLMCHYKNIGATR
Protocol: as §1, §2, §3

hM5R = target: T3, hM5R (Homo sapiens, UniProt P08912); assay: hM5R radioligand binding ([3H]NMS, CHO cell membranes); settings: for Ki: read-out: hM5R -log(Ki) ± sem (converted)
T3 construct: host or cells: CHO cells, stably transfected; crude membranes
T3 sequence (P08912 1-532): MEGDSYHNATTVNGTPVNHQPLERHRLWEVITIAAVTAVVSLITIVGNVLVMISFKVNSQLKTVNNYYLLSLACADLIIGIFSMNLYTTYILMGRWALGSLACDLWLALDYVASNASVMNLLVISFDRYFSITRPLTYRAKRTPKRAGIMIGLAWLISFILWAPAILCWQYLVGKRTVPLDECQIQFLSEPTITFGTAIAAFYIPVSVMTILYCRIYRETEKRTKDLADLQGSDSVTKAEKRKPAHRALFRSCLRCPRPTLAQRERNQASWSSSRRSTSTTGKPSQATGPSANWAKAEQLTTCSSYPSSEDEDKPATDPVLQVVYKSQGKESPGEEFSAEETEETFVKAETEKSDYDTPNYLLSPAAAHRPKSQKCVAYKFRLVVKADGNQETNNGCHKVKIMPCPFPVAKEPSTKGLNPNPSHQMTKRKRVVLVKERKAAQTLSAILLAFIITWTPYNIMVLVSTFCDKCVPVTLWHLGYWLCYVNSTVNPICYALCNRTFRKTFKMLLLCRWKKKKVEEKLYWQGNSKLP
Protocol: as §1
The culture was derived from CHO cells stably transfected with the genes of human variants of muscarinic receptors. These were purchased from Missouri S&T cDNA Resource Center (Rolla, MO, USA). Cell cultures and crude membranes were prepared as described previously.[45] […]
as §3

pKi (hM1R; read-out: affinity to hM1R (Ki)) | pKi (hM2R; [3H]NMS, CHO membranes, read-out: affinity to hM2R (Ki)) | SMILES | Ki (hM1R) [nM] | Ki (hM2R; [3H]NMS, CHO membranes, read-out: hM2R -log(Ki) ± sem (converted)) [nM] | M1R/M2R selectivity ratio (hM2R; from hM1R and hM2R binding) | Ki (hM5R) [nM] | pKi (hM1R; hM1R -log(Ki) ± sem) | pKi (hM2R) | pKi (hM5R; hM5R -log(Ki) ± sem)
– | – | N=C(N)N(CCCCN1CCN(C[C@H]2CC[C@@H](COc3ccccc3)CC2)CC1)Cc1ccccc1 [ADS10227, 1-{4-{4-{[4-(phenoxymethyl)cyclohexyl]methyl}piperazin-1-yl}but-1-yl}-1-(benzyl)guanidine] | 19.5 | 2.82 | < 10 | 195 | – | – | –
– | – | N=C(N)N(CCCCN1CCN(CCCCCCCOc2ccccc2)CC1)Cc1ccccc1 [ADS1017] | – | – | – | – | 6.85 | 7.43 | 6.33
7.35 | 7.28 | [H]/N=C(/N)N(CCCCN1CCN(CC2CCC(COc3ccccc3)CC2)CC1)Cc1ccc(C(F)(F)F)cc1 (centres unmarked) [ADS10239] | 46.8 | – | – | 832 | – | – | –
